This note sets out measurements from article PMC3517478 (BMC Neurology, 2012).

For experiment [1], the target named is T1, human α1S267I-GlyR expressed in HEK 293 cells (Homo sapiens, UniProt P23415, S295I).
T1 sequence (P23415 29-457 S295I): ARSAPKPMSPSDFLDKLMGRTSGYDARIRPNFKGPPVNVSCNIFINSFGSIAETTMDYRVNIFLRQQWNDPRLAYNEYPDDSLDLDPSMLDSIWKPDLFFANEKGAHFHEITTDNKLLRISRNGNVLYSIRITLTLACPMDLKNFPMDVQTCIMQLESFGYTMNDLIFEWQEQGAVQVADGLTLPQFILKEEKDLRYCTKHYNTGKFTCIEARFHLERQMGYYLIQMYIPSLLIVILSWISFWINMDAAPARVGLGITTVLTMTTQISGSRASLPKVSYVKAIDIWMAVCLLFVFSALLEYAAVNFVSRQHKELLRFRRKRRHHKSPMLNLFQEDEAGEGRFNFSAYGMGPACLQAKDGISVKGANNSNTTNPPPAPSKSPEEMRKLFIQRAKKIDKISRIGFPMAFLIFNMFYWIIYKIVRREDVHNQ
The experiment can be described thus: Whole-cell patch-clamp, positive allosteric modulation of glycine (EC20) induced currents. The conditions noted are these: S267I. Further details: expressed in transfected cells; host or cells: HEK 293 (transient, electroporation; pcDNA1amp vector). In kind it is cell-based. As for the experimental part:
Drug-containing vials were vigorously vortexed for 30min.
A new cell was used for each protocol and at least four different experiments were performed for each condition. The concentration of the diluent EtOH corresponding to the highest drug concentration used was 17150 μM.
Currents were filtered at 2 kHz.
Currents were normalized to their own maximum response.
On the technique in general: Patch clamp records ionic current or voltage across a cell membrane.

Experiment [2] has as its target T1, human α1S267I-GlyR expressed in HEK 293 cells. The conditions noted are these: S267I. An excerpt: Human α1-, α1R271Q-, α1R271L-, α1R271K and α1S267I-GlyR subunits were transiently transfected into human embryonic kidney cells (HEK 293, ATCC, Manassas, USA). The wild type α1-GlyR -cDNA was cloned in pCIS2 (Invitrogen, San Diego, USA) vector and provided by Prof. Heinrich Betz (Max-Planck-Institut für Hirnforschung, Frankfurt am Main, Germany). For the plasmid cDNA of the mutated α1R271Q-, α1R271L-, α1R271K- and α1S267I-GlyR the eukaryotic expression vector pcDNA1amp (Invitrogen, San Diego, USA), under the control of cytomegalovirus promoter, was used. For site-directed mutagenesis, single stranded template cDNA was synthesized from M13 origin of replication and the mutations of arginine residue (R) at position 271 to glutamine (R271Q), leucine (R271L) or lysine (R271K) and mutation of serine residue (S) at position 267 to isoleucine (S267I) were generated using standard procedures. […] Wild type and mutated α1-GlyR subunits efficiently form homomeric receptors in heterologous expression systems.
HEK 293 cells were cultured in medium containing HAMS’F-12 (Biochrom, Berlin, Germany), supplemented with 10% fetal bovine serum (FBS, Biochrom, Berlin, Germany), 100 U ml^–1 penicillin and 100μgml^–1 streptomycin (Gibco BRL, Life Technologies, Karlsruhe, Germany) at 37°C in a 5% CO2/ 95% air incubator. For transfection cells were suspended in a buffer containing 50mM K2HPO4 (Fluka BioChemika, Seelze, Germany), 20mMK-acetate (Sigma-Aldrich, Taufkirchen, Germany) and 25mM MgSO4 (Sigma-Aldrich, Taufkirchen, Germany) at pH 7.35. To visualize transfected cells, they were co-transfected with cDNA encoding for enhanced green fluorescent protein (EGFP) contained in the pEGFP-N1 expression vector (Clontech, Palo Alto, USA). The corresponding cDNA (5μg for the GlyR and 2.5μg for EGFP) was added to 400μl of the cell suspension and the mixture was rapidly transferred into the electroporation cuvette. For transfection we used an electroporation device by EquiBio (Kent, UK) and a 4mm aluminum electrode electroporation cuvette (Peqlab, Erlangen, Germany).
The phenol derivative 4-chloropropofol ([…]) was provided as pure substance by Prof. Paul M. O’Neill (University of Liverpool, England), prepared as light-protected 1M stock solution in ethanol (EtOH, J.T.Baker, Griesheim, Germany) and stored in glass vessels at −20°C.
Drug-containing vials were vigorously vortexed for 30min. Patch electrodes were filled with an intracellular solution of [mM] KCl 140, MgCl2 2, EGTA 11, HEPES 10, glucose 11, CaCl2 1 with pH 7.3, adjusted with 1 M KOH and a bath solution contained [mM] NaCl 162, KCl 5.31, NaHPO4 0.85, KH2PO4 0.22, HEPES 15, glucose 6.11, pH 7.4 adjusted with 1 M NaOH. Osmolarity of both solutions was set at 280–300 mOsmol.
Whole-cell experiments were performed at a holding potential of −30 mV with a mean seal resistance of 1 GΩ. […] A fast liquid filament switch technique was used for the application of the agonist, presented in pulses of 2 s duration every 20 s. The liquid filament switch technique is able to exchange the solution passing an outside-out patch or small whole-cells within 1–2 ms. We calculated flow rate of background solution through the chamber with 3,4 ml/min corresponding to 4% of maximal pump rate. With regard to the chamber volume of 100 μl the exchange solution time within the chamber was assessed to approximately […], dependent on cell size accordingly. Piezo-switch and small diameter capillary (ID 0.15 mm) within the measurement chamber promoted the millisecond solution exchange. […] The induced current (I) by this saturating control solution was defined as Icontrol. […] The stability of the seal was controlled during the complete experiment via control of the seal resistance. A variation of 10-20% of the basic value was regarded as tolerable.

Several values for one entry are separate records, joined by “and”; a condition that tells them apart may be missing. Equal entries are not always repeated.

In the case of “4-chloro-2,6-dimethylphenol [4-chloropropofol]”, the “positive allosteric modulation nH ± SEM” value in experiment [1] (EC20 glycine 30 μM) is 0.7 ± 0.3. Moreover, the EC50 in experiment [1] (co-applied with sub-saturating (EC20) glycine 30 μM, read-out: positive allosteric modulation EC50 ± SEM) was 55 µM and 55.1 µM. For the same compound, the “positive allosteric modulation, potentiation [% of peak current amplitude] ± SEM” value in experiment [1] (maximal positive allosteric modulation, EC20 glycine 30 μM) is 128 ± 14%.

As for `NCC(=O)O` [glycine], in experiment [2], the “Current amplitude [% of mean WT current amplitude] ± SEM” value is recorded as 68.2±68% and the “nH ± SEM (Hill coefficient), glycine activation” value was determined as 1.1±0.2. In addition, the “Rise time ± SEM” value in experiment [2] (10-90% of Imax, monoexponential fit) turned out to be 6.6 ± 2.5 ms. The “Mean current amplitude ± SEM” value in experiment [2] (saturating glycine 1 mM) worked out at 1122±765 pA.

The EC50 is the concentration giving half of the maximal effect.
